This note sets out measurements from US20230135894A1, “MK2 DEGRADERS AND USES THEREOF” (Kymera Therapeutics, Inc., priority 2021, published 2023).

For orientation: Dmax means the largest share of the target that was removed. By DC50 is commonly meant the concentration giving 50% degradation.

Assay [1] deals with T1, MK2 (Homo sapiens, UniProt P49137). In words: MK2 degradation in human THP-1 monocytic cells (MSD, 24 h). In kind it is cell-based. Also on record: endogenous in cells. Conditions: for Dmax: THP-1, THP-1 cells; for DC50: THP-1 cells, read-out: MK2 MSD THP-1 degradation 24 h GMean External Abs DC50. The method in brief:
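THP-1 cells (200,000/well) treated 24 h at 37 °C with compound dilution series (up to 10 points, 0.1% DMSO). MK2 in RIPA lysates quantified by MSD sandwich immunoassay. DC50 from 4-parameter logistic fit, DMSO-treated cells as high and lysis buffer as low signal.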

Assay [2] concerns the target T1, MK2. Kind of assay: MK2 degradation in human SW1353 cells (MSD, 24 h). Conditions: for Dmax: read-out: MK2 MSD SW 1353 24 h Dmax %; for DC50: read-out: MK2 MSD SW1353 degradation 24 h GMean External Abs DC50. In kind it is cell-based. Details: endogenous in cells; host or cells: SW-1353 (ATCC HTB-94); key to MK2 MSD SW1353 degradation 24 h GMean External Abs DC50: A (<0.001 μM); B (0.001-0.01 μM); C (0.01-0.1 μM); D (>0.1 μM); —: “-”=not tested or inactive; key to MK2 MSD SW 1353 24 h Dmax %: —: “-”=not tested or inactive. The method in brief: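 SW1353 chondrosarcoma cells were treated with up to 10-point serial dilutions (0.1% DMSO) for 24 h at 37 °C, then lysed in RIPA buffer. MK2 levels were quantified by MSD sandwich immunoassay; DC50 came from a 4-parameter logistic fit normalised to DMSO-treated cells (high) and lysis buffer (low).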

T1 sequence (P49137 whole entry): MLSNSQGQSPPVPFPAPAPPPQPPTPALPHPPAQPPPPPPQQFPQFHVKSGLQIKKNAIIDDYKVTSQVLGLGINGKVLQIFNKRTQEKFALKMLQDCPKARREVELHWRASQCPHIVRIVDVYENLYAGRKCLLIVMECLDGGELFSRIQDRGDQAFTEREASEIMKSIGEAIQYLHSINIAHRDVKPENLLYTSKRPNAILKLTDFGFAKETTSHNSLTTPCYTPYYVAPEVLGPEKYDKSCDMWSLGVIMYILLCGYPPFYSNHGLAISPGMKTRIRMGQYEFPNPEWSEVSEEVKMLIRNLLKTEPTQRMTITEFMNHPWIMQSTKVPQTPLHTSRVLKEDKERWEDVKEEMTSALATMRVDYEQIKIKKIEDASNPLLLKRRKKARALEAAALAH

As for `C[C@@H]1CNc2c(sc3ccc4nc(-c5ccc(C#CCCNC(=O)CCCCCCCCCc6ccc7c(c6)n(C)c(=O)n7C6CCC(=O)NC6=O)cc5)ccc4c23)C(=O)N1` (stereo partly shown) [Compound I-53], on MK2 [1], the Dmax lay in the range of 50 to 75% and the DC50 was in the range of 10 to 100 nM. Moreover, at MK2 [2], the Dmax is more than 75% and the DC50 is 10 to 100 nM.
With `Cc1cnc(-c2ccnc(C(=O)NCCCCCCc3ccc4c(c3)n(C)c(=O)n4C3CCC(=O)NC3=O)n2)cc1-n1c(C)cc(OCc2ncc(F)cc2F)c(Cl)c1=O` (stereo not shown) [Compound I-220], on MK2 [1], the Dmax was less than 50% and the half-maximal degradation concentration (DC50) was more than 100 nM. Moreover, on MK2 [2], the maximal degradation (Dmax) is less than 50% and the DC50 was more than 100 nM.
Take `Cn1c(=O)n(C2CCC(=O)NC2=O)c2cccc(N3CCC(CN4CCN(c5ccc(-c6cc(-c7cc8c([nH]7)CCNC8=O)ccn6)cc5)CC4)CC3)c21` (stereo not shown) [Compound I-120]: on MK2 [1], the greatest degradation seen (Dmax) is more than 75% and the DC50 was 1 to 10 nM. In addition, at MK2 [2], the Dmax was more than 75% and the DC50 lay in the range of 1 to 10 nM.
As for `Cn1c(=O)n(C2CCC(=O)NC2=O)c2ccc(N3CCC(CN4CCN(c5ccc(-c6cc(-c7cc8c([nH]7)CCNC8=O)ccn6)cn5)CC4)CC3)cc21` (stereo not shown) [Compound I-141], on MK2 [1], the Dmax is more than 75% and the half-maximal degradation concentration (DC50) is less than 1 nM. In addition, on MK2 [2], the Dmax is more than 75% and the DC50 is less than 1 nM.
In the case of `Cn1c(=O)n(C2CCC(=O)NC2=O)c2cccc(CCN3CCN(c4ccc(-c5cc(-c6cc7c([nH]6)C6(CC6)CNC7=O)ccn5)cn4)CC3)c21` (stereo not shown) [Compound I-200], on MK2 [1], the greatest degradation seen (Dmax) is more than 75% and the DC50 is 1 to 10 nM. Also, at MK2 [2], the “MK2 MSD SW1353 degradation 24 h GMean External Abs DC50” value is “—” and the Dmax was more than 75%.
Turning to `COc1ccc2c(c1CCN1CCN(c3ccc(-c4cc(-c5cc6c([nH]5)C5(CC5)CNC6=O)ccn4)cc3)CC1)n(C)c(=O)n2C1CCC(=O)NC1=O` (stereo not shown) [Compound I-430], the Dmax on MK2 [1] and at MK2 [2] was more than 75% each time. Also, the DC50 on MK2 [1] and at MK2 [2] was less than 1 nM throughout.
As to `Cn1c(=O)n(C2CCC(=O)NC2=O)c2ccc(CCCN3CCN(c4ccc(-c5cc(-c6cc7c([nH]6)C6(CC6)CNC7=O)ccn5)cc4)CC3)cc21` (stereo not shown) [Compound I-242], the Dmax is 50 to 75% at MK2 [1] and more than 75% at MK2 [2]. Further, the half-maximal degradation concentration (DC50) fell in the range of 10 to 100 nM on MK2 [1] and 1 to 10 nM at MK2 [2].
The like results for `C[C@@H]1CNc2c(sc3ccc4nc(-c5cccc(N6CCC(CN7CCC(CCc8cccc9c8n(C)c(=O)n9C8CCC(=O)NC8=O)CC7)CC6)c5)ccc4c23)C(=O)N1` (stereo partly shown) [Compound I-106] were, in that order, more than 75%, more than 75%, less than 1 nM and 1 to 10 nM.
For `C[C@@H]1CNc2c(sc3ccc4nc(-c5ccc(N6CCC7(CC6)CN(CCCCCCc6cccc8c6n(C)c(=O)n8C6CCC(=O)NC6=O)C7)cc5)ccc4c23)C(=O)N1` (stereo partly shown) [Compound I-294], in that order: more than 75%, more than 75%, less than 1 nM and 1 to 10 nM.
In the case of `COc1ccc2c(c1N1CCN(CC3CCN(c4ccc(-c5ccc6c(ccc7sc8c(c76)NC[C@@H](C)NC8=O)n5)cn4)CC3)CC1)n(C)c(=O)n2C1CCC(=O)NC1=O` (stereo partly shown) [Compound I-256], on MK2 [1], the greatest degradation seen (Dmax) is more than 75% and the 50% degradation concentration (DC50) is less than 1 nM. In addition, on MK2 [2], the Dmax was more than 75% and the 50% degradation concentration (DC50) is less than 1 nM.
Regarding `C[C@@H]1CNc2c(sc3ccc4nc(-c5ccc(N6CCC(CN7CCC(c8cccc9c8n(C)c(=O)n9C8CCC(=O)NC8=O)CC7)CC6)cc5F)ccc4c23)C(=O)N1` (stereo partly shown) [Compound I-299], on MK2 [1], the Dmax is more than 75% and the half-maximal degradation concentration (DC50) was less than 1 nM. On MK2 [2], the Dmax is more than 75% and the DC50 was less than 1 nM.
`Cn1c(=O)n(C2CCC(=O)NC2=O)c2cccc(CCCCCCCCN3CCC4(CC3)CNC(=O)c3c4[nH]c4c3CCc3cnc(-c5ccccc5F)cc3-4)c21` (stereo not shown) [Compound I-309]: on MK2 [1], the Dmax is less than 50% and the 50% degradation concentration (DC50) is more than 100 nM. Besides, at MK2 [2], the “MK2 MSD SW 1353 24 h Dmax %” value is “—” and the 50% degradation concentration (DC50) is more than 100 nM.
Consider `COc1cccc(-c2cc(N3CCN(CC4CCN(c5ccc6c(c5)n(C)c(=O)n6C5CCC(=O)NC5=O)CC4)CC3)cc(-n3cc(-c4ccc5c(c4)CCNC5=O)c(N)n3)c2)c1` (stereo not shown) [Compound I-460], for which, on MK2 [1], the greatest degradation seen (Dmax) is less than 50% and the 50% degradation concentration (DC50) was more than 100 nM. On MK2 [2], the Dmax is less than 50% and the DC50 is more than 100 nM.
On to `Cn1c(=O)n(C2CCC(=O)NC2=O)c2ccc(N3CCC(CN4CCN(c5ccc(-c6cc(-c7cc8c([nH]7)C7(CCC7)CNC8=O)ccn6)cn5)CC4)CC3)cc21` (stereo not shown) [Compound I-213], for which the Dmax at MK2 [1] and on MK2 [2] was more than 75% each time. Besides, the DC50 on MK2 [1] and at MK2 [2] was less than 1 nM in each case.
As to `C[C@@H]1CNc2c(sc3ccc4nc(-c5ccc(N6CCN(CC7CCN(c8ccc9c(c8)n(C)c(=O)n9C8CCC(=O)NC8=O)CC7)CC6)nc5)ccc4c23)C(=O)N1` (stereo partly shown) [Compound I-129], at MK2 [1], the maximal degradation (Dmax) was more than 75% and the half-maximal degradation concentration (DC50) was less than 1 nM. Moreover, on MK2 [2], the greatest degradation seen (Dmax) is more than 75% and the DC50 is less than 1 nM.
With `O=C1CCN(c2cncc3c(N4CC(CN5CCN(c6ccc(-c7cc(-c8cc9c([nH]8)C8(CC8)CNC9=O)ccn7)cc6)CC5)C4)cccc23)C(=O)N1` [Compound I-188], at MK2 [1], the Dmax was more than 75% and the half-maximal degradation concentration (DC50) fell in the range of 1 to 10 nM. Moreover, at MK2 [2], the greatest degradation seen (Dmax) is more than 75% and the half-maximal degradation concentration (DC50) lay in the range of 1 to 10 nM.
On to `Cn1c(=O)n(C2CCC(=O)NC2=O)c2ccc(N3CC(CN4CCN(c5ccc(-c6nccc(-c7cc8c([nH]7)C7(CC7)CNC8=O)n6)c(F)c5)CC4)C3)cc21` (stereo not shown) [Compound I-403, 3-(5-(3-((4-(3-fluoro-4-(4-(4′-oxo-1′,4′,5′,6′-tetrahydrospiro[cyclopropane-1,7′-pyrrolo[3,2-c]pyridin]-2′-yl)pyrimidin-2-yl)phenyl)piperazin-1-yl)methyl)azetidin-1-yl)-3-methyl-2-oxo-2,3-dihydro-1H-benzo[d]imidazol-1-yl)piperidine-2,6-dionee], for which, on MK2 [1], the maximal degradation (Dmax) was more than 75% and the 50% degradation concentration (DC50) is less than 1 nM. Further, at MK2 [2], the Dmax was more than 75% and the DC50 is less than 1 nM.
Take `C[C@@H]1CNc2c(sc3ccc4nc(-c5ccc(N6CCN(C[C@@H]7CCN(c8ccc9c(c8)n(C)c(=O)n9C8CCC(=O)NC8=O)C7)CC6)cc5)ccc4c23)C(=O)N1` (stereo partly shown) [Compound I-214]: on MK2 [1], the Dmax fell in the range of 50 to 75% and the half-maximal degradation concentration (DC50) lay within 1 to 10 nM. At MK2 [2], the Dmax was more than 75% and the DC50 is less than 1 nM.
In the case of `O=C1CCN(c2cncc3c(N4CC(CN5CCN(c6ccc(-c7cc(-c8cc9c([nH]8)CCNC9=O)ccn7)cc6)CC5)C4)cccc23)C(=O)N1` [Compound I-197], at MK2 [1], the maximal degradation (Dmax) was more than 75% and the DC50 lay in the range of 10 to 100 nM. For the same compound, at MK2 [2], the “MK2 MSD SW 1353 24 h Dmax %” value is listed as “—” and the “MK2 MSD SW1353 degradation 24 h GMean External Abs DC50” value is reported as “—”.
On to `Cn1c(=O)n(C2CCC(=O)NC2=O)c2ccc(N3CC(CN4CCN(c5ccc(-c6cc(-c7cc8c([nH]7)C7(CCCC7)CNC8=O)ccn6)c(F)c5)CC4)C3)cc21` (stereo not shown) [Compound I-422], for which, at MK2 [1], the greatest degradation seen (Dmax) was more than 75% and the DC50 was less than 1 nM. Further, at MK2 [2], the Dmax was more than 75% and the DC50 was less than 1 nM.
Consider `Cn1c(=O)n(C2CCC(=O)NC2=O)c2cccc(CCCN3CCN(c4ccc(-c5cc(-c6cc7c([nH]6)C6(CCC6)CNC7=O)ccn5)cc4)CC3)c21` (stereo not shown) [Compound I-204], for which, at MK2 [1], the maximal degradation (Dmax) was more than 75% and the DC50 lay within 1 to 10 nM. Moreover, at MK2 [2], the “MK2 MSD SW 1353 24 h Dmax %” value was “—” and the “MK2 MSD SW1353 degradation 24 h GMean External Abs DC50” value was “—”.
Consider `C[C@@H]1CNc2c(sc3ccc4nc(-c5cccc(N6CCN(CC7CCN(c8ccc9c(c8)CN(C8CCC(=O)NC8=O)C9=O)CC7)CC6)c5)ccc4c23)C(=O)N1` (stereo partly shown) [Compound I-303], for which, on MK2 [1], the Dmax is more than 75% and the half-maximal degradation concentration (DC50) is less than 1 nM. In addition, at MK2 [2], the maximal degradation (Dmax) is more than 75% and the DC50 is 1 to 10 nM.
In the case of `C[C@@H]1CN(C)c2c(sc3ccc4nc(-c5ccc(N6CCC(CN7CCN(c8ccc9c(c8)n(C)c(=O)n9C8CCC(=O)NC8=O)CC7)CC6)cc5)ccc4c23)C(=O)N1` (stereo partly shown) [Compound I-253], the Dmax on MK2 [1] and at MK2 [2] was more than 75% each time. The half-maximal degradation concentration (DC50) on MK2 [1] and at MK2 [2] was 1 to 10 nM in each case.
Take `C[C@@H]1CNc2c(sc3ccc4nc(-c5ccc(N6CCN(CC7CCN(c8ccc9c(c8)CN(C8CCC(=O)NC8=O)C9=O)CC7)CC6)cc5)ccc4c23)C(=O)N1` (stereo partly shown) [Compound I-302]: on MK2 [1], the Dmax was more than 75% and the DC50 lay in the range of 1 to 10 nM. In addition, on MK2 [2], the greatest degradation seen (Dmax) is more than 75% and the DC50 is 1 to 10 nM.
As for `COc1cc(-c2ccc3c(ccc4sc5c(c43)NC[C@@H](C)NC5=O)n2)c(C)cc1N1CCN(CC2CCN(c3ccc4c(c3)n(C)c(=O)n4C3CCC(=O)NC3=O)CC2)CC1` (stereo partly shown) [Compound I-432], on MK2 [1], the Dmax was in the range of 50 to 75% and the DC50 was 10 to 100 nM. Besides, at MK2 [2], the Dmax is more than 75% and the DC50 was less than 1 nM.
